Common to all, as to test: NCI anticancer screen, dose series, 48 h
Experiment [1] deals with SNB-78 CNS.
In experiment [2] the test system is LXFL 529 NSCLC.
In experiment [3] the test system is M19-MEL melanoma.
The subject of experiment [4] is DMS 273 small cell lung.
Experiment [5] relates to RXF-631 renal.
In experiment [6] the test system is XF 498 CNS.
The test system of experiment [7] is PC-3 prostate.
In experiment [8] the test system is MDA-MB-231 breast.
Experiment [9] relates to BT-549 breast.
The test system of experiment [10] is MCF7 breast.

Molecules are shown by their SMILES.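 Five compound concentrations were applied to cells in 96-well plates for 48 hours; endpoints were derived by simple linear interpolation of the resulting dose-response curve. At the GI50, growth is halved. TGI is the concentration that stops growth completely.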 Bounds are passed on as bounds.

For `[N-]=[N+]=Nc1ccc(CCN2CCN(c3cccc(C(F)(F)F)c3)CC2)cc1I`, the TGI in [1], in experiment [2], in experiment [3] and in experiment [4] was > 100 µM in each case.
Consider `O=C1c2ccccc2C(=O)C2C1C1C(=O)c3ccccc3C(=O)C21` (centres undefined), for which the TGI in experiment [2], in [3], in [4] and in experiment [5] was > 100 µM in each case.
In the case of `N#CCCN(CCC#N)C(=O)c1cccc(C(=O)N(CCC#N)CCC#N)c1`, the TGI is > 100 µM in [1]; 19.2 µM in experiment [2]; > 100 µM in experiment [3]; > 100 µM in [4]; > 100 µM in [6].
In the case of `O=C(Cc1nc2ccccc2c(=O)n1-c1c(Cl)cccc1Cl)c1ccncc1`, the TGI in experiment [1] was > 100 µM; in [2], > 100 µM; in experiment [3], 39.6 µM; in experiment [4] it was 40.6 µM; in [5] it was 63.3 µM.
Regarding `CCCCSN1C(=O)c2ccccc2C1=S`, the TGI in experiment [1], in experiment [3], in [4], in experiment [5] and in experiment [6] was > 100 µM each time.
With `NC(N)=NS(=O)(=O)c1ccc(Nc2c3ccccc3nc3c(C(=O)N4CCN(CCO)CC4)cccc23)cc1`, the TGI in [1], in [2], in experiment [3], in [4] and in experiment [6] was > 100 µM each time.
In the case of `COc1cc(=O)oc(/C=C/C=O)c1C`, the TGI was found to be 32.4 µM in [2]; 35.7 µM in experiment [3]; 32.8 µM in experiment [4]; 27.9 µM in experiment [5]; 32.4 µM in experiment [6].
For the molecule `CCCN(CCCN)/[N+]([O-])=N\O`, the TGI in [1], in [2], in experiment [3], in [4] and in experiment [5] was > 100 µM in each case.
Consider `COC(=O)[C@H]1[C@H]2C[C@@H]3c4[nH]c5cc(OC)ccc5c4CCN3C[C@H]2C[C@@H](OC(=O)c2cc(OC)c(OC)c(OC)c2)[C@@H]1OC`, for which the TGI in experiment [2] was found to be 35.7 µM; in [3], 50 µM; in [4], 51.8 µM.
As to `CN(C)c1ccc2c(c1)CN1C(=O)c3ccccc3C1=N2`, the GI50 in experiment [1], in [2], in [4] and in experiment [6] was > 100 µM in each case. Besides, the TGI in [1], in experiment [2], in experiment [4] and in experiment [6] was > 100 µM throughout.
Consider `CC1(C)OC(=O)[C@@](C)([C@H](O)c2ccccc2)O1`, for which the TGI in experiment [1], in experiment [2], in experiment [3], in experiment [4], in experiment [5] and in experiment [6] was > 100 µM each time.
With `CN1C(OCc2ccccc2)c2c(ccc3c2OCO3)C2C=Cc3cc4c(cc3C21)OCO4` (centres undefined), the TGI in [1] came out at 2.04 µM; in experiment [2], 1.37 µM; in [3], 0.361 µM; in [5] it was 2.09 µM.
For the molecule `Cc1ccc(NC(=O)CC/C(CC(=O)C(C)(C)C)=N/NC(=O)C(N)=O)cc1C`, the TGI in experiment [1], in experiment [2], in [3], in [4], in [5] and in [6] was > 100 µM throughout.
As to `N=CCCN(CCC=N)c1ccc(/C=C2\CN(NC(=O)c3ccc(Cl)cc3)C(c3ccccc3)=N2)cc1`, the TGI in experiment [1], in experiment [2], in [4] and in [5] was > 100 µM in each case.
Regarding `CC1(C)C(c2ccccc2)C12CCC1(C2=O)C(c2ccccc2)C1(C)C` (centres undefined), the TGI in experiment [1] is 62.4 µM; in experiment [2], > 100 µM; in experiment [3], 58.9 µM; in experiment [4], 45.3 µM; in [6], 36.1 µM.
`CCOC(=O)c1cc(/C=C/C(C)=C/C(=O)OC)oc1-c1ccccc1`: the TGI in experiment [3], in [4] and in experiment [6] was > 100 µM throughout.
As to `O=C(CC(=O)c1ccc([N+](=O)[O-])cc1)C(=O)Nc1nccs1`, the TGI in experiment [1], in experiment [2], in experiment [4], in experiment [5] and in experiment [6] was > 100 µM each time.
As to `Nc1ncnc2c1ncn2C1OC(CSC(F)(F)F)C(O)C1O` (centres undefined), the TGI in experiment [1], in experiment [2], in [3] and in experiment [4] was > 100 µM in each case.
For the molecule `CCOC(=O)C1=C(C)NC2SC(=O)/C(=C\c3ccccc3Cl)N2C1c1ccccc1` (centres undefined), the GI50 in experiment [7] was 73.3 µM; in experiment [8], > 100 µM; in [9], > 100 µM; in experiment [10], > 100 µM. The TGI in experiment [7], in experiment [8], in experiment [9] and in [10] was > 100 µM throughout.
As to `C[C@@H](C1CCC2C3C(=CC(=O)[C@@]21C)[C@H](C)[C@]1(CCC(=O)O1)C1OC31)[C@H]1C[C@]2(C)O[C@@](C)(O1)OC2(C)C` (some centres undefined), the TGI in experiment [2], in [3], in [4], in [5] and in experiment [6] was > 100 µM in each case.
Consider `O=C1c2cccc3cc([N+](=O)[O-])cc(c23)C(=O)N1NC1=NCCN1`, for which the TGI in experiment [1], in experiment [2], in [3], in [4], in [5] and in experiment [6] was > 100 µM each time.
`NC1=NC(c2ccc(Cl)cc2)N(c2ccc(S(=O)(=O)Nc3ncccn3)cc2)C(N)=N1` (centres undefined): the TGI in experiment [7], in [8], in experiment [9] and in experiment [10] was > 100 µM throughout.

The record behind these values is PubChem BioAssay (NCI).
